Test results: US11407719B2, “Anti-inflammatory agents” (Resverlogix Corp., priority 2009, dated 2022)

Legend:
hIL-6 mRNA = test: Quantification of hIL-6 mRNA; type: cell-based, human; set-up: key: Active: an active compound is one that causes a ≥20% inhibition in IL-6 mRNA at a concentration less than or equal to 10 μM; conditions: IL-6 mRNA by real-time PCR; differentiated U937 cells, 1 h pretreatment, lipopolysaccharide stimulation 3 h; concentration ≤10 μM
Outline: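 U937 cells, differentiated for 3 days, were pretreated with compound for 1 h and then stimulated with E. coli LPS for 3 h at 37 °C. IL-6 mRNA was quantified by one-step qRT-PCR, with Ct normalized to an internal control, and fold induction was expressed relative to control.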

VCAM-1 mRNA = test: Quantification of hVCAM mRNA; type: cell-based, human; set-up: key: Active: an active compound is one that causes a ≥20% inhibition in VCAM-1 mRNA at a concentration less than or equal to 10 μM; -1 mRNA at a concentration less than or equal to 10 μM; conditions: VCAM-1 mRNA by real-time PCR; HUVECs, 1 h pretreatment, tumor necrosis factor-α stimulation 24 h; concentration ≤10 μM
Outline: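 HUVECs were pretreated 1 h with compound, then stimulated with TNF-α and harvested 24 h later. Isolated mRNA went into one-step qRT-PCR. hVCAM Ct values were normalized to an internal control and expressed as fold induction relative to control.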

SMILES	Inhibition of IL-6 expression (hIL-6 mRNA)	Inhibition of VCAM-1 expression (VCAM-1 mRNA)	melting point [°C]
COc1ccc2c(=O)[nH]c(-c3cc(C)c(OCCN4CCCC4)c(C)c3)nc2c1 [2-(3,5-Dimethyl-4-(2-(pyrrolidin-1-yl)ethoxy)phenyl)-7-methoxyquinazolin-4(3H)-one]	Active	Active	218 to 220
Cc1cc(-c2nc3ccc(CN4CCOCC4)cc3c(=O)[nH]2)ccn1 [2-(2-methylpyridin-4-yl)-6-(morpholinomethyl)quinazolin-4(3H)-one]	Active	Inactive	267 to 268
COc1cc(OCCOc2ccccc2)c2c(=O)[nH]c(-c3cc(C)nc(C)c3)nc2c1 [2-(2,6-Dimethylpyridin-4-yl)-7-methoxy-5-(2-phenoxyethoxy)quinazolin-4(3H)-one]	Active	Active	172.3 to 173.2
COc1cc(OC)c2c(=O)[nH]c(-c3cccc(OCCO)c3)nc2c1 [2-(3-(2-Hydroxyethoxy)phenyl)-5,7-dimethoxyquinazolin-4(3H)-one]	Active	Active	244.8 to 246
Cc1cc(-c2nc3ccc(CCN4CCCC4)cc3c(=O)[nH]2)cc(C)n1 [2-(2,6-Dimethylpyridin-4-yl)-6-(2-(pyrrolidin-1-yl)ethyl)quinazolin-4(3H)-one]	Active	Active	212.3 to 213.2
COc1cc(OC)c2c(=O)[nH]c(-c3cc(C)c(OCCN4C(=O)NC(c5ccccc5)C4=O)c(C)c3)nc2c1 (stereo not drawn) [3-(2-(4-(5,7-Dimethoxy-4-oxo-3,4-dihydroquinazolin-2-yl)-2,6-dimethylphenoxy)ethyl)-5-phenylimidazolidine-2,4-dione]	Active	Active	219.6 to 221.4
COc1cc(OCCN2CCCC2)cc2nc(-c3cc(C)nc(C)c3)[nH]c(=O)c12 [2-(2,6-Dimethylpyridin-4-yl)-5-methoxy-7-(2-(pyrrolidin-1-yl)ethoxy)quinazolin-4(3H)-one]	Active	Inactive	227 to 229
COc1cc(OC)c2c(=O)[nH]c(-c3cc(C)c(OCCN4CCN(C(C)=O)CC4)c(C)c3)nc2c1 [2-(4-(2-(4-Acetylpiperazin-1-yl)ethoxy)-3,5-dimethylphenyl)-5,7-dimethoxyquinazolin-4(3H)-one]	Active	Active	213 to 214
COc1cc(OCCOC(C)C)cc2nc(-c3cc(C)nc(C)c3)[nH]c(=O)c12 [2-(2,6-Dimethylpyridin-4-yl)-7-(2-isopropoxyethoxy)-5-methoxyquinazolin-4(3H)-one]	Active	Active	188 to 189
COc1cc(OCCN2CCCC2)c2c(=O)[nH]c(-c3cc(C)nc(C)c3)nc2c1 [2-(2,6-Dimethylpyridin-4-yl)-7-methoxy-5-(2-(pyrrolidin-1-yl)ethoxy)quinazolin-4(3H)-one]	Active	Active	190 to 191
COc1cc(OCCOCc2ccccc2)cc2nc(-c3ccncc3)[nH]c(=O)c12 [7-(2-(Benzyloxy)ethoxy)-5-methoxy-2-(pyridin-4-yl)quinazolin-4(3H)-one]	Active	Active	228.2 to 229.9
Cc1cc(-c2nc3cc(Cl)cc(Cl)c3c(=O)[nH]2)cc(C)c1OCCN1CCCC1 [5,7-Dichloro-2-(3,5-dimethyl-4-(2-(pyrrolidin-1-yl)ethoxy)phenyl)quinazolin-4(3H)-one]	Active	Active	209 to 210
COc1cc(OCCN2CCCC2)cc(-c2nc3cc(OC)cc(OC)c3c(=O)[nH]2)c1 [5,7-Dimethoxy-2-(3-methoxy-5-(2-(pyrrolidin-1-yl)ethoxy)phenyl)quinazolin-4(3H)-one]	Active	Active	159 to 160
COc1cc(OC)cc(-c2nc3ccc(Nc4ccncc4)cc3c(=O)[nH]2)c1 [2-(3,5-Dimethoxyphenyl)-6-(pyridin-4-ylamino)quinazolin-4(3H)-one]	Active	Inactive	289 to 290
COc1cc(OC)c2c(=O)[nH]c(-c3cc(C)c(OCCn4ccnc4)c(C)c3)nc2c1 [2-(4-(2-(1H-Imidazol-1-yl)ethoxy)-3,5-dimethylphenyl)-5,7-dimethoxyquinazolin-4(3H)-one]	Active	Active	218 to 219
COc1cc(OC)c2c(=O)[nH]c(-c3cc(C)c(OCCN4CCCC4)c(C)c3)nc2n1 [2-(3,5-Dimethyl-4-(2-(pyrrolidin-1-yl)ethoxy)phenyl)-5,7-dimethoxypyrido[2,3-d]pyrimidin-4(3H)-one]	Active	Active	228 to 230
COc1cc(OCCNC(C)=O)cc(-c2nc3cc(OC)cc(OC)c3c(=O)[nH]2)c1 [N-(2-(3-(5,7-dimethoxy-4-oxo-3,4-dihydroquinazolin-2-yl)-5-methoxyphenoxy)ethyl)acetamide]	Active	Active	264 to 265
COc1cc(OC)c2c(=O)[nH]c(-c3cc(C)c(CCCN4CCCC4)c(C)c3)nc2c1 [2-(3,5-Dimethyl-4-(3-(pyrrolidin-1-yl)propyl)phenyl)-5,7-dimethoxyquinazolin-4(3H)-one]	Active	Active	194 to 196
Cc1cc(-c2nc3ccc(CCN4CCOCC4)cc3c(=O)[nH]2)cc(C)n1 [2-(2,6-Dimethylpyridin-4-yl)-6-(2-morpholinoethyl)quinazolin-4(3H)-one]	Active	Inactive	248.5 to 249.3
COc1cccc2nc(-c3cc(C)c(OCCN4CCCC4)c(C)c3)[nH]c(=O)c12 [2-(3,5-Dimethyl-4-(2-(pyrrolidin-1-yl)ethoxy)phenyl)-5-methoxyquinazolin-4(3H)-one]	Active	Active	157 to 158
